# Measured values reported in PMC8910920 (International Journal of Molecular Sciences, 2022).
# Legend:
# [1] = system: voltage-activated Na+ and K+ currents; test: Whole-cell voltage-clamp, voltage-activated currents in rat DRG neurons; type: cell-based; details: 1 µM, depolarization pulse to +10 mV
# Protocol: (§1) We also investigated the effect of RGM8-51 on native TRPM8 channels from rat DRG neurons. Whole-cell patch-clamp recordings from small size DRG neurons evidenced menthol (100 µM)-activated inward currents at a holding voltage of −80 mV (Figure 3A). As expected from results obtained in rTRPM8-expressing HEK293 cells, RGM8-51 (1 µM) inhibited menthol-activated currents.
# Voltage-activated Na^+ and K^+ currents and TRPM8-mediated currents were recorded in DRG neurons isolated from 6-8 weeks old Sprague-Dawley rats, as previously described. Rats were sacrificed by cervical dislocation followed by decapitation and lumbar segments of the spinal column were removed and placed in a cold Ca^2+, Mg^2+-free Hank’s solution (Sigma-Aldrich, Madrid, Spain). The bone surrounding the spinal cord was removed and the right L4, L5 and L6 DRG were exposed and pulled out. […]
# (§2) Data were sampled at 10 kHz (EPC10 amplifier with PatchMaster 2.53 software, HEKA Electronics, Lambrecht, Germany) and low-pass filtered at 3 kHz for analysis (PatchMaster 2.53 and GraphPad Prism 6.0, Graphpad Software, San Diego, CA, USA). […] Cell capacitance was measured and used to estimate the current density (J, pA/pF).
# [2] = target: T1, native TRPM8 channels from rat DRG neurons (Rattus norvegicus, UniProt Q8R455); test: Whole-cell voltage-clamp, menthol-activated currents in rat DRG neurons; type: cell-based
# T1 construct: native TRPM8 channels from rat DRG neurons; endogenous in cells; host or cells: primary DRG neurons (L4-L6) from 6-8 weeks old Sprague-Dawley rats
# T1 sequence (Q8R455 whole entry): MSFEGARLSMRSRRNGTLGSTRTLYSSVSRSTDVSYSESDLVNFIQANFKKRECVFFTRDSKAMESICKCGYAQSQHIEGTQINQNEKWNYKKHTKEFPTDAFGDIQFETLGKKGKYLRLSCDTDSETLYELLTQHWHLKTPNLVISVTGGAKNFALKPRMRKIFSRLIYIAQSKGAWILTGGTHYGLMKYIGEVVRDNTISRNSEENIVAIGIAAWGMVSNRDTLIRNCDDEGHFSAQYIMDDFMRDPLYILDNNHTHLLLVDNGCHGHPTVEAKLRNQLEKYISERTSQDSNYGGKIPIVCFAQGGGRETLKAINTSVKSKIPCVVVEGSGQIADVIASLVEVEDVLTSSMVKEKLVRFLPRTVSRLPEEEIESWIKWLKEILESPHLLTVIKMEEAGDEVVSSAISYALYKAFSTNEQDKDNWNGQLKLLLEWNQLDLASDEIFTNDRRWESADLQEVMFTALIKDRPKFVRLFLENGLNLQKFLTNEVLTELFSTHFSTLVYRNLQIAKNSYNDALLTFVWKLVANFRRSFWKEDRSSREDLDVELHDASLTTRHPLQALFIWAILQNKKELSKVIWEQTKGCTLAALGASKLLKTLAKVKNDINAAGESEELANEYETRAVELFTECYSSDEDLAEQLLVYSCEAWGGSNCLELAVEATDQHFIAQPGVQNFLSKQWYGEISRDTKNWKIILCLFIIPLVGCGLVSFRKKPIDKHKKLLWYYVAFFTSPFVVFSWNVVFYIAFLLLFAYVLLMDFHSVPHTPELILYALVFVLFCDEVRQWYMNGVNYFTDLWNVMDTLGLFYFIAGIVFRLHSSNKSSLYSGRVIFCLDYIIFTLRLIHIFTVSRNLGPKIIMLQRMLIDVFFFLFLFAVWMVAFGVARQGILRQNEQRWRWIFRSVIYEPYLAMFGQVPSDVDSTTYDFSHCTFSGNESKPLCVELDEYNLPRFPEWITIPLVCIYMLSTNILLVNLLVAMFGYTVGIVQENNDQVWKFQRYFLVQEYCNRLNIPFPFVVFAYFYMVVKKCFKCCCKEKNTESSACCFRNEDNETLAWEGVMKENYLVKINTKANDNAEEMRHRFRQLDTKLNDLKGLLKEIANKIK
# Protocol: as §1
# Voltage-activated Na^+ and K^+ currents and TRPM8-mediated currents were recorded in DRG neurons isolated from 6-8 weeks old Sprague-Dawley rats, as previously described. Rats were sacrificed by cervical dislocation followed by decapitation and lumbar segments of the spinal column were removed and placed in a cold Ca^2+, Mg^2+-free Hank’s solution (Sigma-Aldrich, Madrid, Spain). The bone surrounding the spinal cord was removed and the right L4, L5 and L6 DRG were exposed and pulled out. After removing the roots, DRG were chopped in half and incubated for 30 min at 37°C in Dulbecco’s modified Eagle’s Medium-low glucose (DMEM; Sigma-Aldrich) containing 5 mg/mL collagenase XI (Sigma-Aldrich, Madrid, Spain), 100 U/mL penicillin (Sigma-Aldrich), and 0.1 mg/mL streptomycin (Sigma-Aldrich). Then, the cell suspension was washed with DMEM by centrifugation (300 G, 5 min at 4 °C), filtered through a 100 µm mesh to eliminate cell clumps and washed again by centrifugation. […]
# as §2
# Data analysis: For the whole-cell patch-clamp experiments, results are expressed as the percentage of remaining activation of the TRPM8 channel. This is calculated by normalizing the ratio (p2/p1) of testing conditions to the ratio (p2/p1) of the control condition. […]
smiles,measurement,setting,value
"C[C@@H]1C(=O)N(C[C@H](Cc2ccccc2)N(Cc2ccccc2)Cc2ccccc2)[C@]1(Cc1ccccc1)C(=O)OC(C)(C)C [RGM8-51, 4(S)-Benzyl-3S-methyl-4-(tert-butoxy)carbonyl-1-[(2′S-dibenzylamino-3′-phenyl)prop-1′-yl]-2-oxoazetidine]",effect on voltage-activated Na+ and K+ currents,[1],had no effect
same,peak current density of menthol-activated current after compound,"[2]; 1 µM, menthol 100 µM, holding −80 mV",0.51 ± 0.09 pA/pF
same,inhibition at 1 µM,"[2]; DRG neuron, 1 µM, menthol 100 µM, holding −80 mV, n = 8 cells, read-out: Mean peak current inhibition of menthol-activated currents",65 ± 4.67%
same,effect on baseline current at -80 mV,[2]; compound on its own,did not modify on its own the baseline current
